# “And” between values parts separate entries of the source, which are not always exact repeats. Equal values may be shown once. The source made the active and inactive calls.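 Rule for the calls: active = compounds giving half or more protection of infected cells from virus-caused growth loss, again on retest; inactive = the rest.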 Where a SMILES comes first, the peptide text is derived from it. [ ]: non-standard residue; d: D form. The star is where a group is joined. hSer = N[CH](CCO)C(=O)O; Boc = CC(C)(C)OC(=O)*
# Tested on: CEM cells HIV-1 protection, formazan growth assay
# Assay: NCI AIDS Antiviral Assay
# Conditions: for IC50: measured here: growth of uninfected CEM cells
# In short: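 Steps: treat uninfected and HIV-1-infected human CEM cells at five drug levels; quantify growth by soluble formazan; retest any compound reaching 50% protection; classify actives from the retest.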
Compound,EC50,IC50,outcome
CC(C)OP(=O)(OC(C)C)/C(C#N)=C/c1c[nH]c2ccccc12,> 200 µM,> 200 µM,–
CCOC(=O)C(C)C(CCC#N)(C(=O)OCC)C(=O)OCC (stereo not given),> 200 µM,> 200 µM,–
Cc1cn([C@H]2CC3C(CON3C)O2)c(=O)[nH]c1=O (stereo not given in full),> 200 µM,> 200 µM,–
O=C(O)CC(c1ccccc1)C(CC(=O)O)c1ccccc1 (stereo not given),> 437 µM,> 437 µM,–
COc1ccc(C(=O)/C=C/c2ccc(OCC(=N)N)cc2)cc1OC,–,–,inactive
COc1ccc2nc3cc(Cl)ccc3c(NCCCN3CCN(CCCNc4ccc5nnn6c7ccccc7c(=O)c4c56)CC3)c2c1,0.00251 µM,0.00794 µM,–
CC(=O)Nc1cc(N=Nc2ccc(N=Nc3ccc(NC(=O)c4ccc(N)cc4)cc3C)cc2C)c(S(=O)(=O)O)cc1N=Nc1ccc(S(=O)(=O)O)cc1,12.9 µM,155 µM,–
CC(=O)OC12c3ccccc3C(c3ccccc31)C1C(=O)N(c3ccccc3O)C(=O)C12 (stereo not given),100 µM,105 µM,–
CCC12OC(COc3ccccc3)CN1CCS2 (stereo not given),> 257 µM,132 µM,–
CC(C)=CCSC1CC2C(CC1(C)O)C2(C)C (stereo not given),> 200 µM,110 µM and 112 µM,–
O=C(O)c1ccccc1CC(Cc1ccccc1)C(=O)O (stereo not given),> 200 µM,126 µM,–
O=C1C2=C(c3ccccc31)C(c1ccc(Cl)cc1)N1C(=O)CCSC1=N2 (stereo not given),> 49 µM,> 49 µM,–
O=C1c2ccccc2C2(c3ccc(Cl)cc3)NCc3ccccc3CN12 (stereo not given),> 200 µM,12.9 µM,–
CC(=O)Nc1ccc(C=Nc2ccc(SSc3ccc(N=Cc4ccc(NC(C)=O)cc4)cc3)cc2)cc1,> 200 µM,23.4 µM,–
Cc1cc(N(CCC#N)S(C)(=O)=O)ccc1C=O,> 933 µM,> 933 µM,–
COc1cc2c(cc1OC)C(Cc1cc(OCc3ccccc3)c(OC)cc1N)N(C)CC2 (stereo not given),–,–,inactive
COCCC(NC(=O)C(CC(C)C)NC(=O)OC(C)(C)C)C(N)=O (stereo not drawn) (Boc-Leu-[hSer](Me)-NH2; configuration not given here),> 200 µM,> 200 µM,–
Fc1ccc2nncc(SCc3ccc(Cl)cc3)c2c1,> 87.1 µM,> 87.1 µM,–
O=C(/C=C/c1ccsc1)c1ccc(Cl)cc1,> 200 µM,3.31 µM,–
O=C1OC(=O)C2C3CCCCC3=C3CCCCC3C12 (stereo not given),> 200 µM,> 200 µM,–
CCOC(=O)C1(C(=O)OCC)CC1(C(=O)OCC)C(=O)OCC,–,–,inactive

Compound,EC50,IC50,outcome
c1cc2ccc1C1NCCCN1CCN1CCCNC1c1ccc(cc1)C1NCCCN1CCN1CCCNC21 (stereo not given),> 13.2 µM,9.33 µM,–
C(=N\Nc1nnc(-c2nnc(N/N=C/c3ccccc3)o2)o1)/c1ccccc1,> 200 µM,> 200 µM,–
CCOC(=O)Nc1cc2c(c(N)n1)N=C(c1ccccc1)CN2,> 0.17 µM,0.0316 µM,–
CC1C(c2ccccc2)=CCON1c1ccccc1 (stereo not given),> 75.9 µM,> 75.9 µM,–
O=C1OC(=O)C2C1CC1C(=O)OC(=O)C12 (stereo not given),> 1200 µM,> 1200 µM,–
C=Cc1cc[n+](CCCCC[n+]2ccc(C=C)cc2)cc1,> 100 µM,> 100 µM,–
CCOP(=O)(Cc1nc(C#N)c(N)o1)OCC,> 200 µM,> 200 µM,–
CCC1=C(C(C)=O)[C@@H]2CCCCC[C@@H](C(=O)OC)C2C1=O (stereo not given in full),191 µM,> 200 µM,–
CN(N)/N=N/c1nc[nH]c1[N+](=O)[O-],> 200 µM,5.62 µM,–
O=C1CC2C(CC3OC(=O)C4C3C23COC4(O)C(O)C3)c2occc21 (stereo not given),> 200 µM,3.24 µM,–
O=c1cc(-c2ccccc2)oc2ccc(-c3ccc4oc(-c5ccccc5)cc(=O)c4c3)cc12,> 200 µM,27.5 µM,–
O=C1NC(=O)C(CCC(=O)c2cccc3ccccc23)C(=O)N1,> 60.3 µM,> 60.3 µM,–
CC(=O)C1C(=O)C(=O)N(c2ccccc2N2C(=O)C(=O)C(C(C)=O)C2=O)C1=O (stereo not given),–,–,inactive
CCOC(=O)C(=Cc1ccc(Br)cc1)C(=O)OCC,> 57.5 µM,11.7 µM,–
COC(=O)c1cc(C(=CCC[C@H]2CC[C@@]3(C)C(CCC4C3CC[C@@]3(C)C4CC[C@@H]3C(C)CCCC(C)C)C2)c2cc(Cl)c(OC(=O)c3ccccc3)c(C(=O)OC)c2)cc(Cl)c1OC(=O)c1ccccc1 (stereo not given in full),> 200 µM,> 200 µM,–
CC#N.CC#N.COC(=O)[C@H]1CCC(=O)[N-]1.COC(=O)[C@H]1CCC(=O)[N-]1.COC(=O)[C@H]1CCC(=O)[N-]1.COC(=O)[C@H]1CCC(=O)[N-]1.[Rh+2].[Rh+2],> 200 µM,> 200 µM,–
CSCCC(NC(=O)OC(C)(C)C)C(=O)NCCNc1ccc(NCCNC(=O)C(CCSC)NC(=O)OC(C)(C)C)c2c1C(=O)c1ccccc1C2=O (stereo not given),> 100 µM,> 100 µM,–
CC(C)(CN1CCCCC1)C(=O)/C=C/c1ccc(Cl)c(Cl)c1,> 33.1 µM,3.09 µM,–
Clc1cc(Cl)c(NN=C(c2ccccc2)c2ccccc2)c(Cl)c1,> 200 µM,> 200 µM,–
O=C1c2cc3c(cc2NC(c2ccccc2F)C1O)OCO3 (stereo not given),> 200 µM,12 µM,–
O=c1[nH]nc(Cc2ccc(Cl)cc2)n1Nc1ccccc1,> 200 µM,> 200 µM,–

Compound,EC50,IC50,outcome
[N-]=[N+]=NC1C(O)C(O)C(O)C(O)C1O (stereo not given),> 603 µM,> 603 µM,–
CC1CCCC2=C1C(=O)N(CSCN1C(=O)C3=C(C1=O)C(C)CCC3)C2=O (stereo not given),> 200 µM,141 µM,–
C#CCOCn1ccc(=O)[nH]c1=O,> 200 µM,> 200 µM,–
CCCCCCCCCCCCCCCCP(=O)(O)OP(=O)(O)OCC1OC(n2ccc(N)nc2=O)C(O)C1O (stereo not given),> 200 µM,–,–
OCCN=C1Nc2ccc(Cl)cc2C(=S)N2CSC[C@@H]12,> 200 µM,> 200 µM,–
NC(=O)/N=N/C(N)=O,105 µM,372 µM,–
COc1ccc2c(c1)[nH]c1c(C)c3ccncc3c(C)c12,> 200 µM,0.112 µM,–
CC(=O)N1c2ccccc2C2=NN(C)C(=N)SC21 (stereo not given),–,–,inactive
O=C1OCC(C2CCCCC2)C(Br)=C1Br (stereo not given),> 200 µM,56.2 µM,–
COc1cc(C(=O)Oc2c(C(C)=O)sc3c2c(=O)n(-c2ccccc2)c(=S)n3-c2ccccc2)cc(OC)c1OC,> 200 µM,1.1 µM,–
CCN(CCCl)c1cc(C(=O)NCCCN(C)CCCNC(=O)c2cc(N(CC)CCCl)c([N+](=O)[O-])cc2[N+](=O)[O-])c([N+](=O)[O-])cc1[N+](=O)[O-],> 200 µM,10.7 µM,–
CC(=O)C1C(=O)C(=O)N(c2ccc([N+](=O)[O-])cc2[N+](=O)[O-])C1=O (stereo not given),> 200 µM,> 200 µM,–
Cc1ccc2c(c1)CC1(C2)Cc2ccc(C)cc2C1=O (stereo not given),> 200 µM,23.4 µM,–
CN(C)c1nc(=Nc2ccc3c(c2)OCO3)ss1,–,–,inactive
CC(=O)Nc1ccc(S(=O)(=O)NCCSSCCNS(=O)(=O)c2ccc(NC(C)=O)cc2)cc1,> 200 µM,> 200 µM,–
CN(C)c1ccc(/C=N/NC(=S)Nc2ccccc2)cc1,> 200 µM,> 200 µM,–
CC(C)(O)/C=C/C(=O)[C@](C)(O)[C@H]1[C@H](O)C[C@@]2(C)[C@@H]3CC=C4[C@@H](C=C(O)C(=O)C4(C)C)[C@]3(C)C(=O)C[C@]12C,> 0.2 µM,0.0324 µM,–
N#Cc1nc(/C=C/c2cccnc2)oc1N,> 200 µM,> 200 µM,–
N#CCCN(CCC#N)c1ccc(/C=C2/C=C(c3ccccc3)OC2=O)cc1,> 14.1 µM,> 14.1 µM,–

# — PubChem BioAssay AID179 (DTP/NCI, 2004)
